From PubChem BioAssay AID1963842 (Molecular Pharmacology Branch, DTP, NCI, 2024)

Test system: 677734-321-R-J1-PDC complex spheroid viability
Experiment: Anticancer human tumor 677734-321-R-J1-PDC patient-derived soft tissue sarcoma cell line growth inhibition [POLQ]
Conditions: for IC50: curve of first compound; for viability, T/C: stronger effect = lower value
Procedure: Multicellular complex tumor spheroid response to Polymerase (POL) inhibitors (novobiocin, ART-558, RP6685) in combination with a variety of drugs and investigational agents in selected tumor cell lines
The POL inhibitors (novobiocin, ART-558, and RP6685) were evaluated both individually and in combination with standard of care and investigational anticancer small molecules within a complex spheroid model of solid tumors. . Complex spheroids include a stromal component modeled by human endothelial cells (HUVEC) and fibroblasts modeled by human mesenchymal stem cells (MSCs). The concentration ranges selected for each drug and investigational agent were based upon clinically achievable concentrations if the clinical Cmax of the agent was known.
Compounds. The drugs and investigational agents: novobiocin (NSC847541), ART-558 (NSC835418), RP-6685 (NSC848927), peposertib (NSC802822), ceralasertib (NSC780249), elimusertib (NSC800525), camonsertib (NSC841442), AZD-1390 (NSC803789), olaparib (NSC753686), talazoparib (NSC767125), rucaparib (NSC756644), sotorasib (NSC818433), MRTX-1133 (NSC836407), SN-38 (NSC673596), topotecan (NSC609699), epotoside (NSC141540), doxorubicin (NSC123127), gemcitabine (NSC613327), 5-fluorouracil (NSC19893), paclitaxel (NSC125973), vemurafenib (NSC761431), MSA-2 (NSC828583), SN-011 (NSC837082), adavosertib (NSC754352), prexasertib (NSC758257), carboplatin (NSC241240) and oxaliplatin (NSC266046), were obtained from the National Cancer Institute (NCI) Developmental Therapeutics Program Chemical Repository (21). The FDA-approved anticancer drug set is available from the Developmental Therapeutics Program at https://dtp.cancer.gov/organization/dscb/obtaining/. […] The stock solutions were prepared in dimethyl sulfoxide (DMSO, Sigma-Aldrich, St. Louis, MO, cat. D2650), except for the platinum compounds which were prepared in saline (Quality Biological, Gaithersburg, MD, cat. 114-055-101), at 800-fold the tested concentration and stored at -70 degrees C prior to their use. All drugs and investigational agents were tested over a range starting from a high concentration at or near the clinical Cmax and decreasing in half-log increments. If the clinical Cmax for an agent had not been determined, the highest concentration tested was 10 microM, except for SN-38, which was tested at a high concentration of 1 microM.
Cell Culture. All cells were maintained in an incubator at 37 degrees C and 5% CO2 with 95% humidity. The PDC lines were cultured according to standard operating procedures established by the NCI PDMR (https://pdmr.cancer.gov). Table 3 of the manuscript, lists the cell lines along with the number of the three cell types plated to form the mct-spheroids and media for tumor cell growth. After thawing, all PDC lines, except 997537-175-T-J1-PDC and 415267-285-R-J2-PDC, were cultured in Matrigel-coated flasks prepared with a working solution of 1X Ham's F-12 nutrient mix, without supplementation (Thermo Fisher Scientific, cat. 11765054), 100 U/mL penicillin-streptomycin (Thermo Fisher Scientific, cat. 15140122), and 2.5% Matrigel (Corning Inc., Corning, NY, cat. 354248) for the first three passages. The two PDC lines 997537-175-T-J1-PDC and 415267-285-R-J2-PDC were cultured on uncoated flasks. The 857933-349-R-J2-PDC line was cultured in 6C/Colon 1B media containing advanced DMEM/F-12 (Thermo Fisher Scientific, cat. 12634028), 10 mM HEPES (Thermo Fisher Scientific, cat. 15630080), 1X GlutaMAX supplement (Thermo Fisher Scientific, cat. 35050061), 0.1 mg/mL primocin (InvivoGen, San Diego, CA, cat. ant-pm-2), 10% defined fetal bovine serum, heat inactivated (HyClone Laboratories Inc., Logan, UT, cat. SH30070.03HI), 50% L-WRN conditioned media (ATCC, cat. CRL-3276), 1.25 mM N-Acetyl-L-cysteine (Sigma-Aldrich, cat. A9165), 10 mM nicotinamide (Sigma-Aldrich, cat. N0636), 1X B-27 supplement (Thermo Fisher Scientific, cat. 17504044), 1X N-2 supplement (Thermo Fisher Scientific, cat. […]

[1] = second compound 0.0316 µM, first compound 0.0316 µM
[2] = second compound 0.0316 µM, first compound 0.1 µM
[3] = second compound 0.0316 µM, first compound 0.316 µM
[4] = second compound 0.0316 µM, first compound 1 µM
[5] = second compound 0.0316 µM, first compound 3.16 µM
[6] = second compound 0.0316 µM, first compound 10 µM
[7] = second compound 0.1 µM, first compound 0.0316 µM
[8] = second compound 0.1 µM, first compound 0.1 µM
[9] = second compound 0.1 µM, first compound 0.316 µM
[10] = second compound 0.1 µM, first compound 1 µM
[11] = second compound 0.1 µM, first compound 3.16 µM
[12] = second compound 0.1 µM, first compound 10 µM
[13] = second compound 0.316 µM, first compound 0.0316 µM
[14] = second compound 0.316 µM, first compound 0.1 µM
[15] = second compound 0.316 µM, first compound 0.316 µM
[16] = second compound 0.316 µM, first compound 1 µM
[17] = second compound 0.316 µM, first compound 3.16 µM
[18] = second compound 0.316 µM, first compound 10 µM
[19] = second compound 1 µM, first compound 0.0316 µM
[20] = second compound 1 µM, first compound 0.1 µM
[21] = second compound 1 µM, first compound 0.316 µM
[22] = second compound 1 µM, first compound 1 µM
[23] = second compound 1 µM, first compound 3.16 µM
[24] = second compound 1 µM, first compound 10 µM
[25] = second compound 3.16 µM, first compound 0.0316 µM
[26] = second compound 3.16 µM, first compound 0.1 µM
[27] = second compound 3.16 µM, first compound 0.316 µM
[28] = second compound 3.16 µM, first compound 1 µM
[29] = second compound 3.16 µM, first compound 3.16 µM
[30] = second compound 3.16 µM, first compound 10 µM
[31] = second compound 10 µM, first compound 0.0316 µM
[32] = second compound 10 µM, first compound 0.1 µM
[33] = second compound 10 µM, first compound 0.316 µM
[34] = second compound 10 µM, first compound 1 µM
[35] = second compound 10 µM, first compound 3.16 µM
[36] = second compound 10 µM, first compound 10 µM
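Further: spheroids exposed to compounds for one week.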
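Wherever viability, T/C is given: 100% = vehicle DMSO treated spheroids.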

Nc1ccn(C2OC(CO)C(O)C2(F)F)c(=O)n1 (centres undefined) + COC1C(OC(N)=O)C(O)C(Oc2ccc3c(O)c(NC(=O)c4ccc(O)c(CC=C(C)C)c4)c(=O)oc3c2C)OC1(C)C
IC50 (second compound 0.0316 µM): < 31.6 nM | IC50 (second compound 0.1 µM): < 31.6 nM | IC50 (second compound 0.316 µM): < 31.6 nM | IC50 (second compound 1 µM): < 31.6 nM | IC50 (second compound 3.16 µM): < 31.6 nM | IC50 (second compound 10 µM): < 31.6 nM | viability, T/C [1]: 32.5% | viability, T/C [2]: 15.3% | viability, T/C [3]: 13.9% | viability, T/C [4]: 11.8% | viability, T/C [5]: 10.9% | viability, T/C [6]: 8.72% | viability, T/C [7]: 38.9% | viability, T/C [8]: 17.6% | viability, T/C [9]: 14% | viability, T/C [10]: 12.8% | viability, T/C [11]: 8.3% | viability, T/C [12]: 9.61% | viability, T/C [13]: 30.9% | viability, T/C [14]: 16.8% | viability, T/C [15]: 15.9% | viability, T/C [16]: 13.1% | viability, T/C [17]: 12.1% | viability, T/C [18]: 8.63% | viability, T/C [19]: 30.2% | viability, T/C [20]: 17.2% | viability, T/C [21]: 11.1% | viability, T/C [22]: 14.3% | viability, T/C [23]: 11.7% | viability, T/C [24]: 7.96% | viability, T/C [25]: 30.1% | viability, T/C [26]: 16.6% | viability, T/C [27]: 12.9% | viability, T/C [28]: 14.5% | viability, T/C [29]: 11.4% | viability, T/C [30]: 8.33% | viability, T/C [31]: 39.1% | viability, T/C [32]: 12.8% | viability, T/C [33]: 12.1% | viability, T/C [34]: 13.1% | viability, T/C [35]: 11.1% | viability, T/C [36]: 11%

O=c1[nH]cc(F)c(=O)[nH]1 + COC1C(OC(N)=O)C(O)C(Oc2ccc3c(O)c(NC(=O)c4ccc(O)c(CC=C(C)C)c4)c(=O)oc3c2C)OC1(C)C
IC50 (second compound 0.0316 µM): 2780 nM | IC50 (second compound 0.1 µM): 3130 nM | IC50 (second compound 0.316 µM): 2910 nM | IC50 (second compound 1 µM): 3150 nM | IC50 (second compound 3.16 µM): 6550 nM | IC50 (second compound 10 µM): 2870 nM | viability, T/C [1]: 113% | viability, T/C [2]: 98.6% | viability, T/C [3]: 106% | viability, T/C [4]: 94.8% | viability, T/C [5]: 44.4% | viability, T/C [6]: 40.5% | viability, T/C [7]: 111% | viability, T/C [8]: 103% | viability, T/C [9]: 103% | viability, T/C [10]: 91.9% | viability, T/C [11]: 49.3% | viability, T/C [12]: 43.2% | viability, T/C [13]: 107% | viability, T/C [14]: 102% | viability, T/C [15]: 108% | viability, T/C [16]: 98.5% | viability, T/C [17]: 46.2% | viability, T/C [18]: 37.1% | viability, T/C [19]: 117% | viability, T/C [20]: 101% | viability, T/C [21]: 112% | viability, T/C [22]: 91.6% | viability, T/C [23]: 50.2% | viability, T/C [24]: 41.1% | viability, T/C [25]: 106% | viability, T/C [26]: 101% | viability, T/C [27]: 121% | viability, T/C [28]: 83.7% | viability, T/C [29]: 63.1% | viability, T/C [30]: 42.8% | viability, T/C [31]: 105% | viability, T/C [32]: 107% | viability, T/C [33]: 115% | viability, T/C [34]: 89.7% | viability, T/C [35]: 47.5% | viability, T/C [36]: 43.3%
